The record followed here is ChEMBL document CHEMBL5385919, “A Survey of Recently Discovered Naturally Occurring Organohalogen Compounds” (J Nat Prod, 2024).

Converted amounts (≈) assume the structure as drawn.

The subject of one assay is MGC-803. The experiment in a line: Cytotoxicity against human MGC-803 cells assessed as inhibition of cell growth incubated for 48 hrs by MTT assay. The assay is classed as functional, cell-based. The note with it: MGC-803, 48 h.
For a further assay, the system named is KB. The experiment in a line: Cytotoxicity against human KB cells assessed as inhibition of cell growth incubated for 48 hrs by MTT assay. The format is functional, cell-based. On the technique in general: Tetrazolium assays rely on reduction of a dye to a coloured formazan, in cell work by metabolically active cells.
In another assay the test system is MCF7. The experiment in a line: Cytotoxicity against human MCF7 cells assessed as inhibition of cell growth incubated for 48 hrs by MTT assay. The assay is classed as functional, cell-based. Particulars: MCF7, 48 h.
The next assay concerns HL-60. The experiment in a line: Cytotoxicity against human HL-60 cells assessed as inhibition of cell growth incubated for 48 hrs by MTT assay. The format is functional, cell-based. The note with it: HL-60, 48 h.
The test system of the next assay is Plasmodium falciparum. The experiment in a line: Antiplasmodial activity against Plasmodium falciparum K1 assessed as reduction in parasite growth. The assay is classed as functional, organism-based.
The test system of assay [1] is Bacillus subtilis. The experiment in a line: Antibacterial activity against Bacillus subtilis assessed as reduction in bacterial growth. The format is functional.
Assay [2] deals with Staphylococcus aureus. The experiment in a line: Antibacterial activity against Staphylococcus aureus assessed as reduction in bacterial growth. The format is functional.
Assay [3] relates to Bacillus subtilis. The experiment in a line: Antibacterial activity against Bacillus subtilis ATCC 6633 assessed as reduction in bacterial growth. The assay is classed as functional.
A further assay concerns HeLa. The experiment in a line: Cytotoxicity against human HeLa cells assessed as inhibition of cell growth. The format is functional, cell-based.
In assay [4] the test system is Staphylococcus aureus. The experiment in a line: Antibacterial activity against Staphylococcus aureus FDA 209P JC-1 assessed as reduction in bacterial growth. The format is functional.
The next assay concerns Bacillus cereus. The experiment in a line: Antibacterial activity against Bacillus cereus assessed as reduction in bacterial growth. The format is functional.

One may read the IC50 as the concentration that gives 50% inhibition. With `COc1c(Cl)ccc2c(=O)c3c(O)c4c5c(c3oc12)OCO[C@@H]5Cc1c-4c(O)c2c(=O)[nH]c(C)c(Cl)c2c1O`, the IC50 in the assay with MGC-803, in the assay with KB, with MCF7 and in the assay with HL-60 was 8 ng/mL (≈ 0.014 µM) each time.
A word on the MIC: it is the smallest concentration in the dilution series that meets the test's criterion for growth inhibition. `Cc1cc(O)cc2c1[C@@H]1O[C@@](C)(Cc3cc4c(c(O)c31)C(=O)c1c(O)cc(O)c(Cl)c1C4(C)C)O2`: the IC50 in the assay on Plasmodium falciparum was found to be 4.49 µM. Moreover, the MIC in the assay on Bacillus subtilis [1] was 400 ng/mL (≈ 0.808 µM); with Staphylococcus aureus [2] it was 800 ng/mL (≈ 1.62 µM).
In the case of `CO[C@H]1C[C@@H](O)[C@H](OC)c2oc3c4c5c(c(O)c3c(=O)c21)-c1c(cc2c(Cl)c(C)n(N)c(=O)c2c1O)C[C@H]5OCO4`, the minimum inhibitory concentration (MIC) in the assay on Bacillus subtilis [3] and in the assay with Staphylococcus aureus [4] was 1 ng/mL (≈ 0.00171 µM) each time. Besides, the half-maximal inhibitory concentration (IC50) in the assay with HeLa came to 40 pM.
Consider `C/C=C(\C)c1c(Cl)c(O)c(C)c2c1Oc1c(C)c(O)c(Cl)c(/C(C)=C/C)c1C(=O)O2`, for which the MIC with Bacillus cereus and in the assay on Staphylococcus aureus [2] was 1560 ng/mL (≈ 3.47 µM) in each case.
